Assay results taken from patent publication US5677328A, “Ethylamino carbazole melatonergic agents” (Bristol-Myers Squibb Company, priority 1996, dated 1997).

Legend:
human ML1a = molecular target: T1, human ML1a (Homo sapiens, UniProt P48039); experiment: Measurement of Melatonergic Binding (human ML1a binding assay, 2-[125I]-iodomelatonin, COS-1 cell membranes); details: 2-[125I]-iodomelatonin 100 pM, 37° C. for 1 hour
T1 construct: expressed in transfected cells; host or cells: COS-1 cells (transient, DEAE-dextran), membrane homogenate
T1 sequence (P48039 whole entry): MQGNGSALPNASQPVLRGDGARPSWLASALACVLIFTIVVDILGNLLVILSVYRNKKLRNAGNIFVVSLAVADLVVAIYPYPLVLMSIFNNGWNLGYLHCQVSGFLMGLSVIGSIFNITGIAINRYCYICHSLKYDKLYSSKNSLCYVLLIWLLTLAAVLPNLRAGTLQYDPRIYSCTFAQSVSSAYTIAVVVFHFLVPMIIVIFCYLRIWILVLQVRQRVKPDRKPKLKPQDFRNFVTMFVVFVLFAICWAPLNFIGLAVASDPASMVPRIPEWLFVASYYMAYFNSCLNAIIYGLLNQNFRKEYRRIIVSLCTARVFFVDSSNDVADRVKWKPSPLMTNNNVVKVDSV
Experimental: Example 35 sets out the human ML1a binding assay used to test activity.
Measurement of Melatonergic Binding
(a) 50 mM Tris buffer containing 12.5mM MgCl2 and 2mM EDTA (pH 7.4 at 37° C.).
(b) Wash buffer: 20mM Tris base containing 2mM MgCl2 (pH 7.4 at room temperature).
(c) 6-Chloromelatonin (10^-5 M final concn.).
(d) 2-[^125 I]-iodomelatonin (100 pM final concn.). Source: NEN
2. Membrane preparation. The cDNA (human ML1A) was introduced into COS-1 cells by the DEAE-dextran method. Three days later, the media was removed, the plates washed with phosphate buffered saline, the cells removed using Hank's balanced salt solution and pelleted. The supernatant was discarded and the pellets frozen. For preparing membrane homogenates, pellets are thawed on ice, and resuspended in TME buffer, Tris base, MgCl2, EDTA (pH 7.4 at 37° C.), supplemented with aprotinin, leupeptin, and phenylmethlysulfonylfluoride. The cells were then homogenized using a dounce homogenizer, and centrifuged. The resulting pellet was resuspended with a dounce homogenizer in TME and frozen. On the day of assay, the small aliquot was thawed on ice and resuspended in TME buffer.
3. Incubation: 37° C. for 1 hour. Reaction is terminated by filtration.
The procedure was based on that disclosed in: Reppert, S. M., Weaver, D. R., and Ebisawa, R. (1994), Neuron, 13, 1177-1185 (1994).

[1] = system: circadian rhythms in rats; details: exogenous melatonin administration, Cassone et al. 1986; cited from earlier work
[2] = cited from earlier work

Row | SMILES | IC50 (human ML1a) | synchronization of circadian rhythms [1] | oral bioavailability [2]
1 | COc1ccc2c3ccc(OC)cc3n(CCCNC(C)=O)c2c1 [Example 8, N-[3-(2,7-Dimethoxy-9H-carbazol-9-yl)propyl]acetamide] | < 100 nM |  | 
2 | CCC(=O)NCCCn1c2cc(OC)ccc2c2ccc(OC)cc21 [Example 9, N-[3-(2,7-Dimethoxy-9H-carbazol-9-yl)propyl]propanamide] | < 100 nM |  | 
3 | CCCC(=O)NCCCn1c2cc(OC)ccc2c2ccc(OC)cc21 [Example 10, N-[3-(2,7-Dimethoxy-9H-carbazol-9-yl)propyl]butanamide] | < 100 nM |  | 
4 | COc1ccc2c3ccc(OC)cc3n(CCCNC(=O)C(C)C)c2c1 [Example 11, N-[3-(2,7-Dimethoxy-9H-carbazol-9-yl)propyl]-2-methylpropanamide] | 100 to 250 nM |  | 
5 | CCCC(=O)NCCn1c2ccccc2c2ccc(OC)cc21 [Example 15, N-[2-(2-Methoxy-9H-carbazol-9-yl)ethyl]butanamide] | < 100 nM |  | 
6 | COc1ccc2c3ccccc3n(CCNC(=O)C3CC3)c2c1 [Example 17, N-[2-(2-Methoxy-9H-carbazol-9-yl)ethyl]cyclopropanecarboxamide] | 100 to 250 nM |  | 
7 | CCCC(=O)NCCn1c2cc(OC)ccc2c2ccc(OC)cc21 [Example 18, N-[2-(2,7-Dimethoxy-9H-carbazol-9-yl)ethyl]butanamide] | 100 to 250 nM |  | 
8 | COc1ccc2c3ccc(OC)cc3n(CCNC(=O)C(C)C)c2c1 [Example 19, N-[2-(2,7-Dimethoxy-9H-carbazol-9-yl)ethyl]-2-methylpropanamide] | 100 to 250 nM |  | 
9 | COc1ccc2c3ccc(OC)cc3n(CCNC(=O)C3CC3)c2c1 [Example 20, N-[2-(2,7-Dimethoxy-9H-carbazol-9-yl)ethyl]cyclopropanecarboxamide] | < 100 nM |  | 
10 | COc1ccc2c3ccc(OC)cc3n(CCNC(=O)CSC)c2c1 [Example 21, N-[2-(2,7-Dimethoxy-9H-carbazol-9-yl)ethyl]methylthioacetamide] | < 100 nM |  | 
11 | COc1ccc2c3ccc(OC)cc3n(CCNC(=O)CS(C)(=O)=O)c2c1 [Example 22, N-[2-(2,7-Dimethoxy-9H-carbazol-9-yl)ethyl]-2-(methanesulfonyl)acetamide] | ≥ 250 nM |  | 
12 | CNC(=O)NCCn1c2cc(OC)ccc2c2ccc(OC)cc21 [Example 26, N-[2-(2,7-Dimethoxy-9H -carbazol-9-yl)ethyl]-N'-methylurea] | < 100 nM |  | 
13 | CCNC(=O)NCCn1c2cc(OC)ccc2c2ccc(OC)cc21 [Example 27, N-Ethyl-N'-[2-(2,7-dimethoxy-9H-carbazol-9-yl)ethyl]urea] | < 100 nM |  | 
14 | COc1ccc2[nH]cc(CCNC(C)=O)c2c1 [melatonin, N-acetyl-5-methoxytryptamine] |  | found to synchronize circadian rhythms in rats | often low and variable
